The record followed here is article PMC10175918 (Communications Biology, 2023).

Structures are written as SMILES. Where two headings read alike, the source gives them in different places.

Assay in all cases: TGFα-shedding assay-based GPCR screening with chimeric Gα subunit proteins
Type in all cases: cell-based

Experiment [1] deals with 348 GPCRs (Homo sapiens, UniProt P35462). Conditions: 10µM, Favipiravir 100μM.
Experiment [2] deals with T1, 348 GPCRs (Homo sapiens, UniProt P23945).
T1 construct: expressed in transfected cells; host or cells: HEK293A
T1 sequence (P23945 18-695): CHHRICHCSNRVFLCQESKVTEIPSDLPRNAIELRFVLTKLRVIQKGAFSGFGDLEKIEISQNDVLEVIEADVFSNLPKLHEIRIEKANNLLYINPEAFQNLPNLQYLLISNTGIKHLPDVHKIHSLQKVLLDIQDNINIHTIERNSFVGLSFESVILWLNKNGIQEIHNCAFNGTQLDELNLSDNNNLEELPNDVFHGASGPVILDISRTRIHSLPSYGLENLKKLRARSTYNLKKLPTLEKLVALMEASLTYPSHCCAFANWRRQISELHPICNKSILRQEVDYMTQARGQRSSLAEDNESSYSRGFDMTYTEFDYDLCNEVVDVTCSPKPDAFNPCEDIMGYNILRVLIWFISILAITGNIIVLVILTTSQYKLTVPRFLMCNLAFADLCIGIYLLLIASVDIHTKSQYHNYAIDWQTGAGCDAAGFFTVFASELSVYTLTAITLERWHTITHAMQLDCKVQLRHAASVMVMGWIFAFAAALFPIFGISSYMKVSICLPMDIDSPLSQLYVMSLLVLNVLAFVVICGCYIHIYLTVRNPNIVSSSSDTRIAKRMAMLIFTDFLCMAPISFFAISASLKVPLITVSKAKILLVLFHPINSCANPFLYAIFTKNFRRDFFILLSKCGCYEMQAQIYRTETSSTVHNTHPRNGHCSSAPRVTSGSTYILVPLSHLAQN
Conditions: 10µM, Favipiravir 100μM.

Experiment [3] addresses T2, 348 GPCRs (Homo sapiens, UniProt P46089).
T2 construct: expressed in transfected cells; host or cells: HEK293A
The note with it: 10µM, Favipiravir 100μM.

Experiment [4] has as its target T3, 348 GPCRs (Homo sapiens, UniProt P30939).
T3 construct: expressed in transfected cells; host or cells: HEK293A
T3 sequence (P30939 1-366): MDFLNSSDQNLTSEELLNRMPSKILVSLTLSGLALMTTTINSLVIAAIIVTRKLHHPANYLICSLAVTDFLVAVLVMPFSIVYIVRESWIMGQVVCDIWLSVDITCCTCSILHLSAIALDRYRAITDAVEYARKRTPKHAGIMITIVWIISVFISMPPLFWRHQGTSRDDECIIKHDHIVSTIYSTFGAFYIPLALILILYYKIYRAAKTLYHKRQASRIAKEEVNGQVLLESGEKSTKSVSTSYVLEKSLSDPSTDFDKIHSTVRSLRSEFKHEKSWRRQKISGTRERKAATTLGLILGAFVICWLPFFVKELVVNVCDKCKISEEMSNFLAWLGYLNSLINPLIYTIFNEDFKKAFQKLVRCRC
Conditions: 5-HT1F (5-hydroxytryptamine receptor 1F); 10µM, Favipiravir 100μM.

Experiment [5] has as its target T4, 348 GPCRs (Homo sapiens, UniProt Q9GZP7).
T4 construct: expressed in transfected cells; host or cells: HEK293A
T4 sequence (Q9GZP7 1-353): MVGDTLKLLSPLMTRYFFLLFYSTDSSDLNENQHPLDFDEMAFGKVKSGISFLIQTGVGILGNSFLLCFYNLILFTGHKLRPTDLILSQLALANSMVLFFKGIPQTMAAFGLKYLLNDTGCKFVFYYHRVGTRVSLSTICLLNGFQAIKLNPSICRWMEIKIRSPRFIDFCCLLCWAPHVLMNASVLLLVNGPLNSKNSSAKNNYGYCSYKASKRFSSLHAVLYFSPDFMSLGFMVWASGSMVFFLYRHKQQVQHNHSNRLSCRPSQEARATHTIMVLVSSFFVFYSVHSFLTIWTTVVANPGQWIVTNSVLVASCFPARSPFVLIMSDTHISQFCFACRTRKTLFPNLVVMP

Experiment [6] has as its target T5, 348 GPCRs (Homo sapiens, UniProt O43614).
T5 construct: expressed in transfected cells; host or cells: HEK293A
T5 sequence (O43614 1-444): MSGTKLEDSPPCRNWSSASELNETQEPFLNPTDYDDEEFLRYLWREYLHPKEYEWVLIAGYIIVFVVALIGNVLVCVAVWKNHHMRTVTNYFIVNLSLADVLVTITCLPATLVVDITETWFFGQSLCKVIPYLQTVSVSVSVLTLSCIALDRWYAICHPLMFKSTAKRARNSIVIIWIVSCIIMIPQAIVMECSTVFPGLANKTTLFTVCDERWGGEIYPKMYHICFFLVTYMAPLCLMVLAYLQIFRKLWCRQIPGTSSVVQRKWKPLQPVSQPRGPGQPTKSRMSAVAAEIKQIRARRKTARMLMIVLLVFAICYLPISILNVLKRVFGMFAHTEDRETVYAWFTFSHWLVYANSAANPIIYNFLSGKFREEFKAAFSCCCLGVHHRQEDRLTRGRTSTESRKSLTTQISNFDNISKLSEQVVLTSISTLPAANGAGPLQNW
Conditions: HCRTR2 (hypocretin (orexin) receptor 2); 10µM, Favipiravir 100μM.

In experiment [7] the target is T6, 348 GPCRs (Homo sapiens, UniProt P49146).
T6 construct: expressed in transfected cells; host or cells: HEK293A
T6 sequence (P49146 1-381): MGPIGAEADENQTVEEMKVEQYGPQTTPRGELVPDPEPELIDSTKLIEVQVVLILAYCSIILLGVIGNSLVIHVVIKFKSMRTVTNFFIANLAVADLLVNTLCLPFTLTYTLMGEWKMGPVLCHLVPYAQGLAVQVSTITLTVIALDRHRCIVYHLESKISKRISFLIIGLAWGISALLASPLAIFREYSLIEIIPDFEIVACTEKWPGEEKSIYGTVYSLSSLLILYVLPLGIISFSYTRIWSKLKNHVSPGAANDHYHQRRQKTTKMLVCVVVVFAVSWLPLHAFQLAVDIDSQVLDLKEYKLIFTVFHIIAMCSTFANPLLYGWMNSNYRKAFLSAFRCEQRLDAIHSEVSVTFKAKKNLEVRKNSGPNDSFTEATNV
Conditions: 10µM, Favipiravir 100μM.

Setting [8] is: D3 (dopamine receptor D3), read-out: % GPCR activation compared to TPA.
The mark [9] stands for this setting: FSHR (follicle stimulating hormone receptor), read-out: % GPCR activation compared to TPA.
Where [10] appears, read: GPR3 (G protein-coupled receptor 3), read-out: % GPCR activation compared to TPA.
The mark [11] stands for this setting: NPY2R (neuropeptide Y receptor Y2), read-out: % GPCR activation compared to TPA.
[12] abbreviates: read-out: % GPCR activation compared to TPA, D3 (dopamine receptor D3).
Setting [13] is: read-out: % GPCR activation compared to TPA, FSHR (follicle stimulating hormone receptor).
Setting [14] is: read-out: % GPCR activation compared to TPA, GPR3 (G protein-coupled receptor 3).
Where [15] appears, read: read-out: % GPCR activation compared to TPA, GPCR VN1R1 (vomeronasal 1 receptor).
[16] abbreviates: read-out: % GPCR activation compared to TPA, NPY2R (neuropeptide Y receptor Y2).
The mark [17] stands for this setting: GPCR VN1R1 (vomeronasal 1 receptor), read-out: % GPCR activation compared to TPA.

T2 sequence (P46089 whole entry): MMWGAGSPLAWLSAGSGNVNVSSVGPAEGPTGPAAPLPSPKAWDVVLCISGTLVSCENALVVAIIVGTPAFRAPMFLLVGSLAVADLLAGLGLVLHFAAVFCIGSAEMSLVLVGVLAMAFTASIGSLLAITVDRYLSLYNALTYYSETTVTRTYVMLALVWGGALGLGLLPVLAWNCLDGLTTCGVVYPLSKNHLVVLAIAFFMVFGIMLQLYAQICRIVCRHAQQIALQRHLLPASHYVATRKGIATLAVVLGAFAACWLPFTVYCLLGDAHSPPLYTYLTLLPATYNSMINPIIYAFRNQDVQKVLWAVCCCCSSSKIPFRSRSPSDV
348 GPCRs (Homo sapiens, UniProt P35462), sequence (P35462 whole entry): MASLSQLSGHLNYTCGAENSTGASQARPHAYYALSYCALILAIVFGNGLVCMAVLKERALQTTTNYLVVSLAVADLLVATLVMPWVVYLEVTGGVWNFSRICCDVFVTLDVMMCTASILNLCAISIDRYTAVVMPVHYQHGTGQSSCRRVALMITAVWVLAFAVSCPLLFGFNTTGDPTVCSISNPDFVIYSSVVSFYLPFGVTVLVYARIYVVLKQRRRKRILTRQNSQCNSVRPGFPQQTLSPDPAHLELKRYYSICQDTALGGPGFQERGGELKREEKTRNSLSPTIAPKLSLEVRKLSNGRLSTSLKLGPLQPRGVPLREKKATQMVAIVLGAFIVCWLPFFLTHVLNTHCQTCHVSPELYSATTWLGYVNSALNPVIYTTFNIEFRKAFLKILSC

On to `NC(=O)c1nc(F)cnc1O` [favipiravir, 6-fluoro-3-hydroxy-2-pyrazinecarboxamide], for which the activation at 100 µM is 7.52% at 348 GPCRs [1] (setting [8]); 3.61% on 348 GPCRs [2] (setting [9]); 3.58% on 348 GPCRs [3] (setting [10]); 1.77% on 348 GPCRs [5] (GPCR VN1R1 (vomeronasal 1 receptor), 100μM, read-out: % GPCR activation compared to TPA); -0.896% at 348 GPCRs [7] (setting [11]). Further, the “% GPCR activation compared to TPA” value at 348 GPCRs [4] is given as 1.629%; on 348 GPCRs [6], 0.7248%.
In the case of `CC(C)OC(=O)[C@H](C)N[P@](=O)(OC[C@H]1O[C@@H](n2ccc(=O)[nH]c2=O)[C@](C)(F)[C@@H]1O)Oc1ccccc1` [sofosbuvir], the activation at 100 µM was -1.16% at 348 GPCRs [1] (setting [12]), 2.02% at 348 GPCRs [2] (setting [13]), -0.512% at 348 GPCRs [3] (setting [14]) and -5.23% at 348 GPCRs [7] (setting [16]). Also, the “% GPCR activation compared to TPA” value on 348 GPCRs [4] was -0.8157%; at 348 GPCRs [6], -1.966%. In addition, on 348 GPCRs [5] (setting [15]), the activation at 10 µM was -0.898%.
Regarding `CCC(CC)COC(=O)[C@H](C)N[P@](=O)(OC[C@H]1O[C@@](C#N)(c2ccc3c(N)ncnn23)[C@H](O)[C@@H]1O)Oc1ccccc1` [remdesivir], the activation at 100 µM on 348 GPCRs [1] (setting [12]) stood at 7.67%; on 348 GPCRs [2] (setting [13]), 2.23%; on 348 GPCRs [3] (setting [14]), 9.85%; at 348 GPCRs [7] (setting [16]), 1.07%. In addition, the “% GPCR activation compared to TPA” value is -2.148% on 348 GPCRs [4] and 0.0002648% at 348 GPCRs [6]. The activation at 10 µM at 348 GPCRs [5] (setting [15]) was determined as 3.04%.
For the compound `N#C[C@@]1(c2ccc3c(N)ncnn23)O[C@H](CO)[C@@H](O)[C@H]1O` [GS441524], the activation at 100 µM on 348 GPCRs [1] (setting [8]) was 4.08%; at 348 GPCRs [2] (setting [9]), 1.25%; on 348 GPCRs [3] (setting [10]) it was 7.48%; at 348 GPCRs [7] (setting [11]), 0.462%. Also, the “% GPCR activation compared to TPA” value at 348 GPCRs [4] turned out to be 0.3563%; on 348 GPCRs [6], 2.174%. Further, the activation at 10 µM on 348 GPCRs [5] (setting [17]) is 2.87%.
Take `CC(C)C(=O)OC[C@H]1O[C@@H](n2ccc(NO)nc2=O)[C@H](O)[C@@H]1O` [molnupiravir]: the activation at 100 µM at 348 GPCRs [1] (setting [8]) was 0.0207%; at 348 GPCRs [2] (setting [9]) it was 0.229%; on 348 GPCRs [3] (setting [10]), -0.728%; on 348 GPCRs [7] (setting [11]), -4.76%. The entries for the “% GPCR activation compared to TPA” value at 348 GPCRs [4] and at 348 GPCRs [6] were 0.7188% and 0.4774%, respectively. On 348 GPCRs [5] (setting [17]), the activation at 10 µM is -1.19%.
